This note sets out measurements from a melting point compilation (Tetko et al.; mined from patent text by program, amines drawn as free bases though some values may be those of a salt).

For orientation: melting point means the temperature of the solid-liquid transition. As for `COc1cc(N)c(C(=O)O)c(OC)c1OC`, the melting point lay within 88 to 91 °C.

Molecule `CC(C)(C)C1CC(CCC(=O)O)(CCC(=O)O)C(=O)C(CCC(=O)O)(CCC(=O)O)C1` gave a melting point of 209 to 212 °C.

As to `Cc1cc(CCCCCCCOc2ccc(C(=O)N(C)C)cc2)on1`, the melting point was in the range of 58 to 59 °C.

As to `COC(=O)c1ccc(N2CCCC2=O)cc1`, the melting point lay in the range of 118 to 120 °C.

In the case of `COC(=O)[C@H](CO)NC(=O)[C@H](CS)NC(C)=O`, the melting point was 127 to 128 °C.

`CNC(=O)NCC1OC(n2cc(C)c(=O)[nH]c2=O)CC1O` (stereo not given) registered a melting point of 238 to 239 °C.

Consider `Clc1ccc(CSC(Cn2ccnc2)C23CC4CC(CC(C4)C2)C3)cc1` (stereo not given), for which the melting point was in the range of 157 to 160 °C.

Molecule `CCOC(=O)C1=C(N)NC2=C(C(=O)CCC2)C1C` (stereo not given) gave a melting point of 236 °C.

Molecule `CCCCOC(=O)[C@H](Cc1ccc(O)cc1)NC(=O)C1(NC(=O)[C@@H](S)C(C)C)CCCC1` came in with a melting point of 182 to 183 °C.

The molecule `CC(=O)Nc1ccccc1C(=O)NCCN1[C@H](C)Cc2ccsc2[C@@H]1C` (relative stereo) returned a melting point of 108 to 112 °C.

In turn, `CC1(C)C(=O)N(CCN2CCc3c([nH]c4ccccc34)C2)c2ccccc21` came in with a melting point of 156 to 158 °C.

As for `O=C1C(=O)c2ccccc2C2=C1SCC1(CCN(C(=O)c3cccc(C(F)(F)F)c3)CC1)O2`, the melting point lay within 165 to 166 °C.

Molecule `CCCCc1ncc(CC(=O)NCC(=O)O)n1Cc1ccccc1Cl` yielded a melting point of 84 to 88 °C.

Turning to `CCCCCCCCCC(=O)Nc1cc(NC(=O)CCCCCCCCC)cc(C(=O)O)c1`, the melting point was 208 to 209 °C.

`NC(=O)c1[nH]cnc1OC(=O)C=Cc1ccccc1` had a melting point of 170 to 175 °C.

In turn, `COC(=O)C(CCCBr)Oc1cc2c(cc1[N+](=O)[O-])CCC2` (stereo not given) registered a melting point of 154 to 155 °C.

In the case of `COc1cccc(OC(=O)NC2C(=O)N(CCC(C)C)c3cc(Cl)ccc3N(c3ccccc3)C2=O)c1` (stereo not given), the melting point was 129 to 130 °C.

Consider `O=C(O)[C@@H]1Cc2ccccc2N1c1ccc(Cl)nn1`, for which the melting point was 211 to 212 °C.

The molecule `O=C(COc1ccc2ccc(=O)oc2c1)c1ccccc1` yielded a melting point of 163 to 165 °C.

As for `OCC[Si](c1ccccc1)(c1ccccc1)c1ccccc1`, the melting point was in the range of 96 to 97 °C.

On to `CCCCCCCCCCCCS(=O)(=O)Nc1cc(C(=O)Nc2ccccc2)ccc1OC`, for which the melting point fell in the range of 156 to 157 °C.

Consider `Cc1ccc(CSC2=C(O)CC(C)(C)CC2=O)cc1`, for which the melting point fell in the range of 100 to 102 °C.

For the molecule `Cc1nc(N2CCN(Cc3ccccc3)S2(=O)=O)sc1C(=O)NCc1cccnc1`, the melting point is 140 to 142 °C.

In turn, `CN(C)c1ncc2c(=O)n(CCc3ccccn3)sc2n1` yielded a melting point of 134 to 136 °C.

Regarding `CN1C2CCC1CC(O)(c1ccccc1)C2` (stereo not given), the melting point was in the range of 157 to 159 °C.

On to `CC1=C(c2cccc(C(F)(F)F)c2)n2ncc(C#N)c2N(C(=O)CN2CCN(c3ccccn3)CC2)C1`, for which the melting point is 132 to 134 °C.

Turning to `CC[C@@]12CCCN1[C@@H](C(Cl)(Cl)Cl)OC2=O`, the melting point lay within 76 to 77 °C.

`COCCOCCOc1ccc(C=O)cc1` registered a melting point of 44 to 47 °C.

For the molecule `C#CC(C)(C)CCOc1ccc(Cl)cc1`, the melting point lay in the range of 42 to 45 °C.

For the molecule `COc1cc(C2=NNC(=O)CC2)ccc1OCC1CO1` (stereo not given), the melting point is 134 to 136 °C.

In the case of `COc1cc2cc3c(=O)[nH]cnc3cc2cc1OCCN1CCOCC1`, the melting point lay within 230 to 232 °C.

Consider `CC[C@@H](NC(=O)N1CC(=O)NC[C@@H](Cc2cc(Cl)ccc2OC)C1=O)c1cncc(C(=O)O)c1`, for which the melting point fell in the range of 138 to 140 °C.

`CCCCCCCCC1C=CC(/C=C/c2ccc(C(=O)O)o2)=C2N=C3C(=C21)CC(C)(C)CC3(C)C` (stereo not given) returned a melting point of 156 to 158 °C.

With `CCNc1ccc(C(=O)OC)cc1`, the melting point fell in the range of 132 to 135 °C.

`CCN(CC)C(=O)c1cc(-c2ccc(C)cc2)nc2ccccc12` came in with a melting point of 52 °C.

For `O=C(NCc1ccncc1)c1ccnc(N2CCN(Cc3ccc(F)cc3)C2=O)c1`, the melting point lay within 205 to 207 °C.

`O=C1c2c(O)cccc2C(c2cccs2)c2cccc(O)c21` returned a melting point of 181 to 182 °C.

In turn, `CC1Cc2cc3c(cc2C(c2ccc([N+](=O)[O-])cc2)=NN1C(=S)Cl)OCO3` (stereo not given) displayed a melting point of 187 to 188 °C.

On to `O=C(c1ccccc1)c1[nH]c2cc(Cl)ccc2c1NC(=O)C(F)(F)F`, for which the melting point was 165 to 168 °C.

`COC(=O)c1sccc1C(C)=O`: the melting point was in the range of 59 to 60 °C.

In turn, `Cc1ccc(S(=O)(=O)n2cc([C@@H]3C[C@H]3C=O)c3cc(C#N)ccc32)cc1` (relative stereo) returned a melting point of 165 to 167 °C.

In turn, `CC(C)(C)c1cc(-c2n[nH]c(=S)o2)cc(C(C)(C)C)c1O` came in with a melting point of 254 °C.

Take `CNC(=O)c1cc(Br)cc(-c2ccccc2)c1`: the melting point amounted to 132 °C.

Molecule `O=c1oc2ccccc2n1-c1ccccc1[N+](=O)[O-]` yielded a melting point of 153 to 155 °C.

Take `CN(Cc1ccccc1)C(=O)Nc1cc(C(C)(C)C)on1`: the melting point is 107 to 108 °C.

As for `CCN(CC)c1ccc(-c2cc(-c3ccc(C(=O)O)cc3)ccc2CC(O)CO)cc1C(C)(C)C` (stereo not given), the melting point was 130 °C.

The molecule `CC(O)C1C(=O)N2C(C(=O)OCc3ccccc3)=CCC12` (stereo not given) gave a melting point of 94 to 99 °C.

Molecule `CC(C)(C)NC(=S)N1CCN(c2cnccn2)CC1` had a melting point of 153 to 156 °C.

`Cc1cc(NCCO)c2[nH]nc(Br)c2n1` showed a melting point of 210 to 214 °C.

For `CC(C)(C)c1ccc(C2CCSC(c3c(F)cccc3F)=N2)cc1` (stereo not given), the melting point lay within 91 to 91.5 °C.

`COCOCC1(C)Cc2c(C)c(N3CCN(c4ccc(OC)cc4)CC3)c(C)c(C)c2O1` (stereo not given): the melting point was 111 to 114 °C.

`CCCCCCCCCCCCOS(=O)(=O)NC(=O)Nc1c(C(C)C)cccc1C(C)C` displayed a melting point of 112 to 115 °C.

In the case of `CCCCCCn1c(=O)[nH][nH]c1=O`, the melting point was in the range of 144 to 145 °C.

On to `COC(=O)N1CCc2onc(OC)c2C1`, for which the melting point is 58 to 60 °C.

In turn, `CN1CCC(C(=O)Nc2ccc(CN(C)C3CCOCC3)cc2)=Cc2cc(-c3ccc(N4CCCCC4)cc3)ccc21` showed a melting point of 202 to 204 °C.

`CCCC(CCC)(CCC)NC(=O)NC` had a melting point of 120 °C.

In turn, `CC(C)(O)CCn1c2ccccc2c2cc(NC(=O)c3ccccc3Cl)ccc21` showed a melting point of 120 to 124 °C.

`CCN(CC)CC(C)COc1ccc2nc(-c3cccc(OC)c3)n(CC(=O)NC(C)C)c(=O)c2c1` (stereo not given) gave a melting point of 161 to 163 °C.

For the molecule `CCCc1nc(C(C)(C)O)c(C(=O)OC(C)OC(=O)OC(C)C)n1Cc1ccc(-c2ccccc2C(=O)O)cc1` (stereo not given), the melting point fell in the range of 94 to 96 °C.

With `CCCn1c(-c2ccccc2)cc(=O)c(C(=O)O)c1-c1ccccc1`, the melting point was in the range of 166 to 167 °C.

For `CCOC(=O)C1CCN(C(=O)OC)CC1=O` (stereo not given), the melting point was 36 to 38 °C.

As for `COc1c(-c2cc3c(s2)CCC/C3=N\OCc2cccnc2)ccc2c(=O)c(C(=O)O)cn(C3CC3)c12`, the melting point lay within 181 to 183 °C.

On to `CN(C)CCC1CCc2cc(OCc3cc4ccccc4o3)ccc2C1` (single isomer, unassigned; (+)), for which the melting point lay in the range of 75 to 77 °C.

The molecule `COc1cc(C=CC=O)ccc1OC(C)C` gave a melting point of 93 to 94 °C.

`Nc1ncc(CCO)s1` displayed a melting point of 125 to 127 °C.

Take `CCCCN(CCCC)CC(=O)N1c2ccccc2N(CCCC)C(=O)c2cnc(-c3ccccc3)nc21`: the melting point lay in the range of 103 to 104 °C.

In the case of `CCOC(=O)Nc1nc(-c2ccccc2)c(-c2nc3ccccc3c(=O)n2-c2ccc(Cl)cc2)s1`, the melting point was > 275 °C.

The molecule `CCCC(O)(Cn1nc[nH]c1=S)c1ccc(Cl)cc1Cl` (stereo not given) showed a melting point of 148 °C.

In turn, `COc1ccc(CCc2c(Cl)cncc2Cl)c2cc(C#N)nn12` gave a melting point of 208 to 209 °C.

In the case of `CC1C(=O)NC2=Nc3ccc(OCCCCC(=O)N(CCO)C4CCCCC4)c(Cl)c3CN21` (stereo not given), the melting point fell in the range of 206 to 208 °C.

Regarding `Cc1cc(-c2cccc(C(F)(F)F)c2)c2nc(OC(F)F)cnc2c1`, the melting point lay within 103 to 104 °C.

Take `O=S(=O)(O)c1cccc(NCc2cccc(C(F)(F)F)c2)c1`: the melting point is > 275 °C.

As for `CNc1ccc(C(=O)N(CCN2CCC(C(=O)c3ccc(F)cc3)CC2)c2cccnc2)cc1`, the melting point is 90 to 96 °C.

`CC(C)[C@H]1C(=O)OCN1C(=O)OCc1ccccc1` had a melting point of 54 to 55 °C.

As for `Fc1ccc(N2CCC(NCc3ccn4c(CC5CC5)nnc4c3C(F)(F)F)CC2)c(F)c1`, the melting point was 118 °C.

Turning to `COC(=O)c1cc(OC)c([N+](=O)[O-])cc1NC(C)=O`, the melting point was in the range of 141 to 143 °C.

`CCC(Oc1cc(C)cc(C)c1)C(=O)NCc1ccccc1` (stereo not given) registered a melting point of 93 to 94 °C.

Take `CN(C)CCN(CCN(C)C)c1ccc(-c2nc3ccccc3[nH]2)cc1`: the melting point is 190 to 191 °C.

In the case of `CN(c1cccc2cc(C3=NCC(CC(N)=O)S3)[nH]c12)S(=O)(=O)c1nccs1` (stereo not given), the melting point is 216 to 218 °C.

Regarding `NC(=O)CNC(=O)c1ccc(F)c(-c2cccc3cc(Cc4cc(F)cc(Cl)c4)sc23)c1`, the melting point fell in the range of 159 to 160 °C.

For `c1cc(CNc2nccc3ccccc23)cc(Nc2nnc3c4c(cccc24)-c2ccccc2-3)c1`, the melting point lay in the range of 149 to 152 °C.

`CC(=O)Oc1cnc2c(OC(C)=O)cccc2c1` yielded a melting point of 101 to 102 °C.

`CCCOc1ccc(C(=O)O)c(OCc2ccc(OCCc3nc(-c4ccccc4)oc3C)cc2)c1` yielded a melting point of 108 to 109 °C.

As for `Cc1c2n(c3ccccc13)C(=O)C(Cc1cccnc1)CC2` (stereo not given), the melting point lay within 158 to 160 °C.

On to `CC(=O)c1nn2c3c(cccc13)CCC2`, for which the melting point lay within 62 to 64 °C.

`N#Cc1c(N2CCc3ccccc3CC2)nc(NCCCOc2ccccc2)[nH]c1=O` gave a melting point of 175 to 180 °C.

On to `COc1ccc2oc(Cc3cccc(Cl)c3)c(CC#N)c2c1`, for which the melting point amounted to 82 °C.

The molecule `CN(C)CC(Cc1ccccc1)NC(=O)c1ccccc1` (stereo not given) gave a melting point of 110 °C.

In turn, `Fc1ccc(-c2cc(Cl)nc3ccccc23)cc1` yielded a melting point of 118 °C.

`C=CCc1c(OCc2ccccc2)ccc2c(=O)ccoc12` showed a melting point of 90 to 92 °C.
